Source: the supplement of paper PMC10307832

What follows are cell lines tested with C(C(=O)C(=O)O)Br [Bromopyruvate] + NC(=O)Nc1cc(-c2cccc(F)c2)sc1C(=O)N[C@H]1CCCNC1 [AZD7762] (partner 0.2 µM) (assay: relative viability (nuclei count vs DMSO), 5 days (fraction); higher = more cells survive). Conditions: first compound 1 µM.
Procedure, shortened: (§1)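 Cells from lung cancer lines were seeded into 1536-well plates and, one day later, dosed by pin tool. Treatments were either a single drug or a fixed dose of an anchor drug with five library-drug doses (not always all listed) in √10 steps. After 5 days, nuclei were stained in a one-step fixation (final 0.05% Triton X-100, 1% formaldehyde, 1 ug/ml Hoechst) and counted on 4× images, and relative viability is the treated-to-vehicle nuclei ratio, as the median of duplicate plates.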

Compared with NCI-H522, NCI-H838 is higher in relative viability: 0.874 for the first, 0.914 for the second.

Going from NCI-H1703 to NCI-H1993, the relative viability rises from 0.119 to 0.821.

Compared with PC-14, LCLC-103H is higher in relative viability: 0.483 for the first, 0.726 for the second.

Going from NCI-H596 to EMC-BAC-2, the relative viability falls from 1.08 to 1.04.

First: NCI-H2087
Second: HCC-366
The relative viability of the first is higher: 1.19 for the first, 0.272 for the second.

Compared with NCI-H1666, NCI-H647 is lower in relative viability: 0.966 for the first, 0.565 for the second.

Compared with LK-2, NCI-H2342 is lower in relative viability: 0.423 for the first, 0.397 for the second.

Going from ChaGo-K-1 to HCC-44, the relative viability rises from 0.881 to 0.959.

Compared with SW 900, NCI-H1648 is higher in relative viability: 0.629 for the first, 0.671 for the second.

Cell Line NCI-H1792 has a relative viability of 0.678.

Same assay, conditions: first compound 3.162 µM

First: NCI-H522
Second: NCI-H838
The relative viability of the first is lower: 0.861 for the first, 0.913 for the second.

Compared with NCI-H1703, NCI-H1993 is higher in relative viability: 0.124 for the first, 0.872 for the second.

First: PC-14
Second: LCLC-103H
The relative viability of the first is lower: 0.401 for the first, 0.804 for the second.

First: NCI-H596
Second: EMC-BAC-2
The relative viability of the first is higher: 1.28 for the first, 1.16 for the second.

Going from NCI-H2087 to HCC-366, the relative viability falls from 1.4 to 0.346.

Compared with NCI-H1666, NCI-H647 is lower in relative viability: 0.843 for the first, 0.63 for the second.

Compared with LK-2, NCI-H2342 is lower in relative viability: 0.458 for the first, 0.436 for the second.

Going from ChaGo-K-1 to HCC-44, the relative viability rises from 0.868 to 1.01.

Compared with SW 900, NCI-H1648 is higher in relative viability: 0.528 for the first, 0.721 for the second.

Work on NCI-H1792 yielded a relative viability of 0.783.

Same assay, conditions: first compound 10 µM

Going from NCI-H522 to NCI-H838, the relative viability rises from 0.821 to 1.02.

Compared with NCI-H1703, NCI-H1993 is higher in relative viability: 0.138 for the first, 0.994 for the second.

First: PC-14
Second: LCLC-103H
The relative viability of the first is lower: 0.407 for the first, 0.951 for the second.

First: NCI-H596
Second: EMC-BAC-2
The relative viability of the first is higher: 1.12 for the first, 1.09 for the second.

Going from NCI-H2087 to HCC-366, the relative viability falls from 1.36 to 0.197.

Going from NCI-H1666 to NCI-H647, the relative viability falls from 0.878 to 0.405.

First: LK-2
Second: NCI-H2342
The relative viability of the first is lower: 0.266 for the first, 0.451 for the second.

Going from ChaGo-K-1 to HCC-44, the relative viability rises from 0.874 to 0.963.

Going from SW 900 to NCI-H1648, the relative viability rises from 0.519 to 0.713.

Cell Line NCI-H1792 has a relative viability of 0.792.

Same assay, conditions: first compound 31.62 µM

Going from NCI-H522 to NCI-H838, the relative viability falls from 1.05 to 0.949.

First: NCI-H1703
Second: NCI-H1993
The relative viability of the first is lower: 0.13 for the first, 0.851 for the second.

Going from PC-14 to LCLC-103H, the relative viability rises from 0.412 to 0.751.

First: NCI-H596
Second: EMC-BAC-2
The relative viability of the first is higher: 1.17 for the first, 1.04 for the second.

First: NCI-H2087
Second: HCC-366
The relative viability of the first is higher: 1.2 for the first, 0.254 for the second.

First: NCI-H1666
Second: NCI-H647
The relative viability of the first is higher: 0.872 for the first, 0.553 for the second.

First: LK-2
Second: NCI-H2342
The relative viability of the first is higher: 0.474 for the first, 0.47 for the second.

First: ChaGo-K-1
Second: HCC-44
The relative viability of the first is lower: 0.866 for the first, 1.02 for the second.

First: SW 900
Second: NCI-H1648
The relative viability of the first is lower: 0.564 for the first, 0.623 for the second.

NCI-H1792 was tested, and the relative viability was 0.798.

Same assay, conditions: first compound 100 µM

First: NCI-H522
Second: NCI-H838
The relative viability of the first is lower: 0.755 for the first, 0.935 for the second.

Compared with NCI-H1703, NCI-H1993 is higher in relative viability: 0.0978 for the first, 0.982 for the second.

First: PC-14
Second: LCLC-103H
The relative viability of the first is lower: 0.384 for the first, 0.901 for the second.

Going from NCI-H596 to EMC-BAC-2, the relative viability rises from 0.993 to 1.1.

First: NCI-H2087
Second: HCC-366
The relative viability of the first is higher: 1.32 for the first, 0.249 for the second.

First: NCI-H1666
Second: NCI-H647
The relative viability of the first is higher: 0.766 for the first, 0.568 for the second.

First: LK-2
Second: NCI-H2342
The relative viability of the first is lower: 0.387 for the first, 0.481 for the second.

Compared with ChaGo-K-1, HCC-44 is higher in relative viability: 0.92 for the first, 1.04 for the second.

Going from SW 900 to NCI-H1648, the relative viability falls from 0.66 to 0.551.

Work on NCI-H1792 yielded a relative viability of 0.655.

The cell lines below were run with CC(O)(CS(=O)(=O)c1ccc(F)cc1)C(=O)Nc1ccc(C#N)c(C(F)(F)F)c1 [Bicalutamide] + Cc1nc(NC(=O)N2CCC[C@H]2C(N)=O)sc1-c1ccnc(C(C)(C)C(F)(F)F)c1 [Alpelisib] (partner 2 µM) in the same assay as above. Conditions: first compound 0.08 µM.
Procedure, shortened: as §1

Compared with NCI-H838, EBC-1 is lower in relative viability: 0.984 for the first, 0.885 for the second.

First: NCI-H1703
Second: NCI-H2009
The relative viability of the first is lower: 0.321 for the first, 1.25 for the second.

Compared with PC-14, LCLC-103H is higher in relative viability: 0.916 for the first, 1.04 for the second.

First: NCI-H596
Second: NCI-H2228
The relative viability of the first is lower: 0.521 for the first, 0.779 for the second.

First: EMC-BAC-2
Second: NCI-H2087
The relative viability of the first is lower: 0.702 for the first, 1.22 for the second.

Compared with Calu-6, HCC-366 is lower in relative viability: 1.04 for the first, 0.476 for the second.

Compared with NCI-H1666, NCI-H647 is higher in relative viability: 1.01 for the first, 1.32 for the second.

Going from LK-2 to SK-MES-1, the relative viability falls from 1.21 to 0.903.

Going from COR-L23 to COR-L 105, the relative viability rises from 0.846 to 0.957.

Compared with IA-LM, HCC-44 is higher in relative viability: 0.801 for the first, 0.848 for the second.

Going from A549 to NCI-H2023, the relative viability falls from 0.878 to 0.593.

First: NCI-H520
Second: SW 1573
The relative viability of the first is higher: 1.08 for the first, 0.678 for the second.

Going from NCI-H1299 to NCI-H1792, the relative viability falls from 1.11 to 0.722.

First: NCI-H1563
Second: SK-LU-1
The relative viability of the first is lower: 0.944 for the first, 1.12 for the second.

NCI-H661 was tested, and the relative viability was 0.594.

Same assay, conditions: first compound 0.253 µM

Compared with NCI-H838, EBC-1 is lower in relative viability: 0.909 for the first, 0.845 for the second.

First: NCI-H1703
Second: NCI-H2009
The relative viability of the first is lower: 0.243 for the first, 1.14 for the second.

First: NCI-H1993
Second: PC-14
The relative viability of the first is lower: 0.693 for the first, 0.952 for the second.

Work on LCLC-103H yielded a relative viability of 0.907.
